biological target: T1, human TLR9 (Homo sapiens, UniProt Q9NR96); assay: TLR9 inhibition reporter assay (HEK-Blue SEAP); type: cell-based; conditions: HEK-Blue cells overexpressing human TLR9, ODN2006 5 nM, 22 hour incubation
T1 construct: host or cells: HEK-Blue cells
T1 sequence (Q9NR96 26-1032): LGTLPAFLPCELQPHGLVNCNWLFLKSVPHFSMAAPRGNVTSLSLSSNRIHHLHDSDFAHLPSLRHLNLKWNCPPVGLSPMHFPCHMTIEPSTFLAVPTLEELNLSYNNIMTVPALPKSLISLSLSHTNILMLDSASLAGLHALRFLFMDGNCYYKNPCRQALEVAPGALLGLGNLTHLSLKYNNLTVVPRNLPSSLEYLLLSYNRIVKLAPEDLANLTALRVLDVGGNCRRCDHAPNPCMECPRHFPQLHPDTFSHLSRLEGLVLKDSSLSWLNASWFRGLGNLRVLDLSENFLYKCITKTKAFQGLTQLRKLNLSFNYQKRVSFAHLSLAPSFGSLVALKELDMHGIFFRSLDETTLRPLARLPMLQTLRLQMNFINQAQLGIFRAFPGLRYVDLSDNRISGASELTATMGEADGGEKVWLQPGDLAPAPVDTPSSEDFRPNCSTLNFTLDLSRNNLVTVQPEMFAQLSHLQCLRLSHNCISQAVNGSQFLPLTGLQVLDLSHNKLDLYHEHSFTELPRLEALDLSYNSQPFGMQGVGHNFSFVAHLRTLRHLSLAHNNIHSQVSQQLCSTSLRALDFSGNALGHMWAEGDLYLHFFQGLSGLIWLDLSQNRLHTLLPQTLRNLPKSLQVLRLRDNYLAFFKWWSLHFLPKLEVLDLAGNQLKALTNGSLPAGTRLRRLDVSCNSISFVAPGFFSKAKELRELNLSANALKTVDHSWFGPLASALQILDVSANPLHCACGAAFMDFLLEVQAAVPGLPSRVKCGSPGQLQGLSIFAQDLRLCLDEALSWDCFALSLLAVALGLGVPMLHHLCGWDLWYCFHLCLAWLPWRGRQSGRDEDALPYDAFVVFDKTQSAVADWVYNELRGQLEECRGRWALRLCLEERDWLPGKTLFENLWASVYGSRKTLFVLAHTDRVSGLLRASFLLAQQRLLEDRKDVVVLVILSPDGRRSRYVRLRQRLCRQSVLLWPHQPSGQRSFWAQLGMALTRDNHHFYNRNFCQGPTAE
Method in brief: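 Human TLR7/8/9 HEK-Blue reporter lines; dose range 0.05 nM–50 μM; 30 min RT preincubation; stimulus gardiquimod 7.5 μM / R848 15.9 μM / ODN2006 5 nM respectively; 22 h, 37 °C; SEAP detected colorimetrically.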

| IC50 [µM] | SMILES |
| --- | --- |
| 7.05 | Cc1c(-c2cc3[nH]c(=O)n([C@H]4CC[C@@H](NCC5CCOCC5)CC4)c3cc2C(C)C)cn2ncnc2c1C [Example 200, 5-(7,8-dimethyl-[1,2,4]triazolo[1,5-a]pyridin-6-yl)-6-isopropyl-1-((1s,4s)-4-(((tetrahydro-2H-pyran-4-yl)methyl)amino)cyclohexyl)-1,3-dihydro-2H-benzo[d]imidazol-2-one] |
| 22.9 | COc1cc(-c2cc3[nH]c(=O)n([C@H]4CC[C@H](NC5COC5)CC4)c3cc2C(C)C)cn2ncnc12 [Example 201, 6-isopropyl-5-(8-methoxy-[1,2,4]triazolo[1,5-a]pyridin-6-yl)-1-((1r,4r)-4-(oxetan-3-ylamino)cyclohexyl)-1,3-dihydro-2H-benzo[d]imidazol-2-one] |
| 23 | COc1cc(-c2cc3[nH]c(=O)n([C@H]4CC[C@H](N(C)C)CC4)c3cc2C(C)C)cn2ncnc12 [Example 202, 1-((1r,4r)-4-(dimethylamino)cyclohexyl)-6-isopropyl-5-(8-methoxy-[1,2,4]triazolo[1,5-a]pyridin-6-yl)-1,3-dihydro-2H-benzo[d]imidazol-2-one] |
| 30.9 | COc1cc(-c2cc3[nH]c(=O)n([C@H]4CC[C@H](NC(C)C)CC4)c3cc2C(C)C)cn2ncnc12 [Example 203, 6-isopropyl-1-((1r,4s)-4-(isopropylamino)cyclohexyl)-5-(8-methoxy-[1,2,4]triazolo[1,5-a]pyridin-6-yl)-1,3-dihydro-2H-benzo[d]imidazol-2-one] |
| 11.7 | COc1cc(-c2cc3[nH]c(=O)n([C@H]4CC[C@H](NCC(C)C)CC4)c3cc2C(C)C)cn2ncnc12 [Example 204, 1-((1r,4s)-4-(isobutylamino)cyclohexyl)-6-isopropyl-5-(8-methoxy-[1,2,4]triazolo[1,5-a]pyridin-6-yl)-1,3-dihydro-2H-benzo[d]imidazol-2-one] |
| 11.6 | COc1cc(-c2cc3[nH]c(=O)n([C@H]4CC[C@H](N(CC(C)C)CC(C)C)CC4)c3cc2C(C)C)cn2ncnc12 [Example 205, 1-((1r,4r)-4-(diisobutylamino)cyclohexyl)-6-isopropyl-5-(8-methoxy-[1,2,4]triazolo[1,5-a]pyridin-6-yl)-1,3-dihydro-2H-benzo[d]imidazol-2-one] |
| 6.53 | COc1cc(-c2cc3[nH]c(=O)n([C@H]4CC[C@H](N(CC5CC5)CC5CC5)CC4)c3cc2C(C)C)cn2ncnc12 [Example 206, 1-((1r,4s)-4-(bis(cyclopropylmethyl)amino)cyclohexyl)-6-isopropyl-5-(8-methoxy-[1,2,4]triazolo[1,5-a]pyridin-6-yl)-1,3-dihydro-2H-benzo[d]imidazol-2-one] |
| 4.63 | COc1cc(-c2cc3[nH]c(=O)n([C@H]4CC[C@H](NC5CCN(C(C)C)CC5)CC4)c3cc2C(C)C)cn2ncnc12 [Example 207, 6-isopropyl-1-((1r,4r)-4-((1-isopropylpiperidin-4-yl)amino)cyclohexyl)-5-(8-methoxy-[1,2,4]triazolo[1,5-a]pyridin-6-yl)-1,3-dihydro-2H-benzo[d]imidazol-2-one] |
| 3.32 | CCc1cc2c(cc1-c1cc(OC)c3ncnn3c1)[nH]c(=O)n2[C@@H]1CCCN(CCC(C)(C)C)C1 [Example 208, (R)-1-(1-(3,3-dimethylbutyl)piperidin-3-yl)-6-ethyl-5-(8-methoxy-[1,2,4]triazolo[1,5-a]pyridin-6-yl)-1,3-dihydro-2H-benzo[d]imidazol-2-one] |
| 12.7 | CCc1cc2c(cc1-c1cc(OC)c3ncnn3c1)[nH]c(=O)n2[C@@H]1CCCN(CC2CCCC2)C1 [Example 209, (R)-1-(1-(cyclopentylmethyl)piperidin-3-yl)-6-ethyl-5-(8-methoxy-[1,2,4]triazolo[1,5-a]pyridin-6-yl)-1,3-dihydro-2H-benzo[d]imidazol-2-one] |
| 2.36 | COc1cc(-c2cc3[nH]c(=O)n([C@@H]4CCCN(CCC(C)(C)C)C4)c3cc2C(C)C)cn2ncnc12 [Example 210, (R)-1-(1-(3,3-dimethylbutyl)piperidin-3-yl)-6-isopropyl-5-(8-methoxy-[1,2,4]triazolo[1,5-a]pyridin-6-yl)-1,3-dihydro-2H-benzo[d]imidazol-2-one] |
| 2.98 | COc1cc(-c2cc3[nH]c(=O)n([C@@H]4CCCN(CC5CCCC5)C4)c3cc2C(C)C)cn2ncnc12 [Example 211, (R)-1-(1-(cyclopentylmethyl)piperidin-3-yl)-6-isopropyl-5-(8-methoxy-[1,2,4]triazolo[1,5-a]pyridin-6-yl)-1,3-dihydro-2H-benzo[d]imidazol-2-one] |
| > 50 | CCc1cc2c(cc1-c1cc(OC)c3ncnn3c1)[nH]c(=O)n2[C@@H]1CCCN(C2CCOC2)C1 (stereo partly drawn) [Example 212, 6-ethyl-5-(8-methoxy-[1,2,4]triazolo[1,5-a]pyridin-6-yl)-1-((3R)-1-(tetrahydrofuran-3-yl)piperidin-3-yl)-1,3-dihydro-2H-benzo[d]imidazol-2-one] |
| > 50 | CCc1cc2c(cc1-c1cc(OC)c3ncnn3c1)[nH]c(=O)n2[C@@H]1CCCN(C2CCOC2)C1 (stereo partly drawn) [Example 213, 6-ethyl-5-(8-methoxy-[1,2,4]triazolo[1,5-a]pyridin-6-yl)-1-((3R)-1-(tetrahydrofuran-3-yl)piperidin-3-yl)-1,3-dihydro-2H-benzo[d]imidazol-2-one] |
| 21 | CCc1cc2c(cc1-c1cc(OC)c3ncnn3c1)[nH]c(=O)n2[C@@H]1CCCN(C2CCCOC2)C1 (stereo partly drawn) [Example 215, 6-ethyl-5-(8-methoxy-[1,2,4]triazolo[1,5-a]pyridin-6-yl)-1-((3R)-1-(tetrahydro-2H-pyran-3-yl)piperidin-3-yl)-1,3-dihydro-2H-benzo[d]imidazol-2-one] |
| > 50 | COc1cc(-c2cc3[nH]c(=O)n([C@@H]4CCCN(C5CCOC5)C4)c3cc2C(C)C)cn2ncnc12 (stereo partly drawn) [Example 216, 6-isopropyl-5-(8-methoxy-[1,2,4]triazolo[1,5-a]pyridin-6-yl)-1-((3R)-1-(tetrahydrofuran-3-yl)piperidin-3-yl)-1,3-dihydro-2H-benzo[d]imidazol-2-one] |
| > 50 | COc1cc(-c2cc3[nH]c(=O)n([C@@H]4CCCN(C5CCOC5)C4)c3cc2C(C)C)cn2ncnc12 (stereo partly drawn) [Example 217, 6-isopropyl-5-(8-methoxy-[1,2,4]triazolo[1,5-a]pyridin-6-yl)-1-((3R)-1-(tetrahydrofuran-3-yl)piperidin-3-yl)-1,3-dihydro-2H-benzo[d]imidazol-2-one] |
| > 50 | COc1cc(-c2cc3[nH]c(=O)n([C@H]4CCCN(CC(N)=O)C4)c3cc2C(C)C)cn2ncnc12 [Example 220, (S)-2-(3-(6-isopropyl-5-(8-methoxy-[1,2,4]triazolo[1,5-a]pyridin-6-yl)-2-oxo-2,3-dihydro-1H-benzo[d]imidazol-1-yl)piperidin-1-yl)acetamide] |
| 20.6 | COCCN1CCC[C@H](n2c(=O)[nH]c3cc(-c4cc(OC)c5ncnn5c4)c(C(C)C)cc32)C1 [Example 221, (S)-6-isopropyl-5-(8-methoxy-[1,2,4]triazolo[1,5-a]pyridin-6-yl)-1-(1-(2-methoxyethyl)piperidin-3-yl)-1,3-dihydro-2H-benzo[d]imidazol-2-one] |
| > 50 | COc1cc(-c2cc3[nH]c(=O)n([C@H]4CCCN(CCS(C)(=O)=O)C4)c3cc2C(C)C)cn2ncnc12 [Example 222, (S)-6-isopropyl-5-(8-methoxy-[1,2,4]triazolo[1,5-a]pyridin-6-yl)-1-(1-(2-(methylsulfonyl)ethyl)piperidin-3-yl)-1,3-dihydro-2H-benzo[d]imidazol-2-one] |
| 13.2 | COCCN1CCC(n2c(=O)[nH]c3cc(-c4cc(OC)c5ncnn5c4)c(C(C)C)cc32)CC1 [Example 223, 6-isopropyl-5-(8-methoxy-[1,2,4]triazolo[1,5-a]pyridin-6-yl)-1-(1-(2-methoxyethyl)piperidin-4-yl)-1,3-dihydro-2H-benzo[d]imidazol-2-one] |
| > 50 | COc1cc(-c2cc3[nH]c(=O)n(C4CCN(CCS(C)(=O)=O)CC4)c3cc2C(C)C)cn2ncnc12 [Example 224, 6-isopropyl-5-(8-methoxy-[1,2,4]triazolo[1,5-a]pyridin-6-yl)-1-(1-(2-(methylsulfonyl)ethyl)piperidin-4-yl)-1,3-dihydro-2H-benzo[d]imidazol-2-one] |
| 14.2 | COCCN1CCC[C@@H](n2c(=O)[nH]c3cc(-c4cc(OC)c5ncnn5c4)c(C(C)C)cc32)C1 [Example 226, (R)-6-isopropyl-5-(8-methoxy-[1,2,4]triazolo[1,5-a]pyridin-6-yl)-1-(1-(2-methoxyethyl)piperidin-3-yl)-1,3-dihydro-2H-benzo[d]imidazol-2-one] |
